Data published in patent US6734168B2, “Endothelial monocyte activating polypeptide II: a mediator which activates host response” (The Trustees of Columbia University in the City of New York, priority 1993, dated 2004).
No end group written: not given here.

Key:
[1] = system: human PMNs; experiment: PMN migration in microchemotaxis chambers; type: cell-based; set-up: key to PMN MIGRATION: (+) indicates the peptide induced PMN migration; (−) indicates the peptide did not induce PMN migration above levels seen in controls which contained no chemotactic stimulus; conditions: for PMN MIGRATION: peptides 100 pM in each case; for Induction of PMN migration (chemotaxis): microchemotaxis chamber, 45 min at 37° C.
Procedure: (§1) Assessment of mononuclear phagocyte (mononuclears) and polymorphonuclear leukocyte (PMN) migration. Human peripheral blood monocytes were isolated from the blood of normal healthy volunteers (30). Blood was centrifuged on Hisopaque 1077 (Sigma, St. Louis, Mo.), the mononuclear fraction was obtained, washed twice in Earle's balanced salt solution, resuspended in RPMI 1640 containing human serum (10%; Gemini, Calabasas, Calif.), plated on tissue culture dishes and incubated at 37° C. for 1-2 hrs. Nonadherent cells were removed by washing the plate twice with balanced salt solution, and adherent cells were harvested by incubation with calcium-magnesium free buffer containing EDTA (2 mM) for 15 min at 37° C., followed by extensive washing. PMNs were prepared by centrifugation over Hisopaque 1119 as per the manufacturer's protocol (Sigma). Chemotaxis assays were performed in microchemotaxis chamber (NeuroProbe, Bethesda, Md.) containing Nucleopore polycarbonate membranes (5 μm; Nucleopore, Pleasonton, Calif.). Mononuclears or PMNs were suspended in RPMI 1640 containing fetal bovine serum (1%) and 10^4 cells were added per well to the upper chamber. The chemotactic stimulus was added to the indicated chamber, and assays were performed in quadruplicate over a 3 hr or 45 min incubation period at 37° C., with mononuclear cells or PMNs, respectively, after which non-migrating cells were removed, membranes were fixed in methanol, migrating cells were visualized with Wright's stain. Cells in nine high-power fields were counted, and the mean and standard error of the mean (SEM) were determined.
(§2) Cell migration was studied by adding MPs or PMNs (10^4 cells/well) resuspended in RPMI 1640 with fetal calf serum (1%; Gemini) to the upper wells of a microchemotaxis chamber (Neuro Probe, Bethesda, Md.) containing Nucleopore polycarbonate membranes (5 μm, Nucleopore, Pleasanton Calif.), as described (7,29-30). The chemotactic stimulus was placed in the upper or lower chamber, as indicated, and cells were allowed to migrate for 3 hrs (for MPs) or 45 min (for PMNs) at 37° C. Following removal of non-migrating cells, membranes were fixed in methanol and migrating cells were visualized with Wright's stain. Assays were performed in quadruplicate, and cells were counted in nine high-power fields in each case (mean±SEM is shown in the figures).
(§3) Migration of PMNs and MPs—Migration was studied using cells (10^4 and 10^3 cells/well form PMNs and MPs, respectively) resuspended in RPMI 1640 with fetal calf serum (1%) added to the upper wells of a microchemotaxis chamber (Neuro Probe, Bethesda, Md.) containing Nucleopore polycarbonate membranes (5 um, Nucleopor, Pleasanton, Calif.), as described (13, 22, 35). The stimulus was placed in the upper or lower chamber, as indicated, and the cells were allowed to migrate for 3 h (for MPs) or 45 min (for PMNs) at 37° C. Following removal of nonmigrating cells, membranes were fixed in methanol, and migrating cells were visualized with Wright's stain. Assays were performed in quadruplicate, and cells were counted in […] high-power fields in each case (mean±S.E. is shown in the figures).

[2] = system: human MPs; experiment: Radioligand binding of 125I-[…] to MPs; conditions: for Competition for binding of 125I-RIGRIVTAKY to MPs by unlabelled peptide/protein: excess / increasing concentrations of unlabelled competitor
Procedure: Radioligand binding studies were performed on human MPs plated in 96-well plates (5-6×10^4 cells/well). Cells were washed twice with Hanks balanced salt solution, and then Dulbecco's Modified Eagle Medium containing HEPES (25 mM; pH 7.4), penicillin/streptomycin (50 U/ml; 50 μg/ml), and bovine serum albumin-fatty acid free (0.5%; Sigma) were added (0.1 ml/well). Cultures were incubated at 4° C. for 2 hrs with ^125I-[…] alone or in the presence of unlabelled peptide/protein. Each well was washed four times over a period of 20 sec, and cell-associated radioactivity was eluted by an acidic buffer (HCl, 0.1 M, pH 2; NaCl, 0.1 M) at 4° C. for 5 min. During the elution period, there was no detachment of cells from the growth substrate. The conditions for incubation and washing used in the binding studies shown in FIG. 3 (2 hrs at 4° C.) were […] to allow binding of ^125I-[…] to reach an apparent maximum, even at the lowest tracer concentrations, and to remove unbound material by washing quickly so that <10% of the cell-bound radioactivity dissociated.

[3] = system: human PMNs; experiment: [Ca2+]i measurement in PMNs (fura-2); type: cell-based
Procedure: (§4) [Ca^2+1]i measurements. PMNs or MPs (2×10^7 cells in each case) were incubated with fura-2 AM (1 μM) and pluronic detergent (0.02%) for 12 min at room temperature, diluted sixfold, and incubated for a further 30 min at room temperature to allow for complete hydrolysis of the dye. Cells were then resuspended in HEPES-buffered saline at 5×10^5 cells/ml (32). For experiments using MPs, sulfinpyrazone (0.5 mM) was included at all steps to minimize both dye sequestration into intracellular organelles and dye efflux (33). Fluorescence of fura-2 was monitored at 37° C. in a thermostatically-controlled cuvette installed in a Perkin Elmer Model 650-40 fluorescense spectrophotometer. Calibration of [Ca^2+]i was performed as described (34).
(§5) For determination of [Ca^2+] in PMSs and MPs, cells (2×10^7 in each case) were incubated with fura-2 AM (1 um) and pluronci detergent (0.02%) at room temperature, diluted 6-fold, and incubated for a further 30 min at room temperature to allow for complete hydrolysis of the dye. Cells were then resuspended in HEPES-buffered saline at 5×10^5 cells/ml (32). For MPs, sulfinpyrazone (0.5 mM) was included at all steps to minimize both dye sequestration into intracellular organelles and dye efflux (33). Fluorescence of fura-2 was monitored at 37° C. in a thermostatically controlled cuvette installed in a Perkin Elmer model 650-40 fluorescence spectrophotometer. Calibration of [Ca^2+] was performed as described (34).

[4] = system: human MPs; experiment: [Ca2+]i measurement in MPs (fura-2); type: cell-based
Procedure: as §4
as §5, with “Calibration of [Ca^2+] was performed as described (34).” left out

[5] = system: ECs; experiment: Pilot binding studies using ECs; conditions: data not shown
[6] = system: human peripheral blood monocytes (MPs); experiment: Mononuclear phagocyte migration in microchemotaxis chambers; type: cell-based; conditions: microchemotaxis chamber, 3 hrs at 37° C.
Procedure: as §1, §2, §3

Substance	PMN MIGRATION [1]	Competition for binding of 125I-RIGRIVTAKY to MPs by unlabelled peptide/protein [2]	further results
RIGRIVT	+	blocked	Rise in [Ca2+]i in PMNs [3]: did not promote enhanced [Ca^2+]i; Rise in [Ca2+]i in MPs [4]: insufficient to promote increases in [Ca^2+]i
ASRLDLRTGRIVT		blocked	
ASRLDL	−	had no effect	Rise in [Ca2+]i in PMNs [3]: inactive
RIGRIIT	+		
RIGRIVTAKY	+		Rise in [Ca2+]i in PMNs [3]: did not promote enhanced [Ca^2+]i
125I-RIGRIVTAKY (also: 125I label)			N, binding sites ([2]; 4° C.): 8.3±1.2×10^3 molecules of peptide bound per cell; Kd ([2]; read-out: Kd of specific binding to MPs (one-site model), 4° C.): 0.19 ± 0.11 nM; Specific binding to ECs [5]: specific binding
AIGRIVT	+		
CRAQTMANSGIK [peptide derived from the C-terminal portion of EMAP II, reference compound]		had no effect	Induction of PMN migration (chemotaxis) [1]: no chemotaxis was observed; Induction of MP (mononuclear cell) migration (chemotaxis) [6]: inactive
RIGRAVT	−	had no effect	
RICRIVTAK		inhibition	
ASRLDLRIGC*IVTAK	+		
IRKDMDKVETFLRIVQ [irrelevant peptide derived from growth hormone, reference compound]			Induction of PMN migration (chemotaxis) [1]: no chemotaxis was observed; Induction of MP (mononuclear cell) migration (chemotaxis) [6]: inactive
LRIGRIVTAKY	+		
ASRLDLRIGRIVTAK	+		
AVLPRSAKELRL [peptide derived from the ELR-region of IL-8, residues #23-34, reference compound]			Induction of PMN migration (chemotaxis) [1]: no chemotaxis was observed; Induction of MP (mononuclear cell) migration (chemotaxis) [6]: inactive
